Test results taken from US10583112B2, “Benzo[b]furans as bromodomain inhibitors” (GlaxoSmithKline Intellectual Property (No. 2) Limited, priority 2016, dated 2020).

Tests used:
[1] = molecular target: T1, BRD4 BD1 (Homo sapiens, UniProt O60885, Y390A); assay: BRD4 BD1 TR-FRET competition assay; type: binding; conditions: mean, n given; read-out: pIC50 in the BRD4 BD1 TR-FRET assay (converted)
T1 construct: BRD4 (1-477) (Y97A) and (Y390A); made in house; host or cells: E. coli (pET15b vector)
Description: Bromodomain binding was assessed utilising a time resolved fluorescent resonance energy transfer (TR-FRET) competition assay. To enable this approach a known, high affinity, pan-BET interacting small molecule was labelled with Alexa Fluor® 647, which is a far-red-fluorescent dye (Reference Compound X). Reference Compound X acts as a reporter of bromodomain binding and is the acceptor fluorophore component of the TR-FRET pair. Europium chelate, conjugated to an anti-6*His antibody, was utilised as the donor fluorophore in the TR-FRET pair. […]
The competition of the compounds of formula (I) with Reference Compound X for binding to the BET family (BRD2, BRD3, BRD4 and BRDT) was assessed using protein truncates spanning both bromodomain 1 (BD1) and bromodomain 2 (BD2). […] Utilising a Fluorescence Polarisation approach, binding affinities for each of the single and double mutants for Reference Compound X were determined. […]
All assay components were dissolved in an assay buffer composing of 50 mM HEPES pH7.4, 50 mM NaCl, 5% Glycerol, 1 mM DTT and 1 mM CHAPS. […] TR-FRET was detected using a Perkin Elmer Multimode plate reader, by exciting the donor fluorophore at λ337 nm and subsequently, after a delay of 50 μsecs, measuring emission of the donor and acceptor fluorophores at λ615 nm and λ665 nm, respectively. […]

[2] = molecular target: T2, BRD4 BD2 (Homo sapiens, UniProt O60885, Y97A); assay: BRD4 BD2 TR-FRET competition assay; type: binding; conditions: for IC50: mean where stated, n given, read-out: pIC50 in the BRD4 BD2 TR-FRET assay (converted)
T2 construct: BRD4 (1-477) (Y97A) and (Y390A); made in house; host or cells: E. coli (pET15b vector)
Description: Bromodomain binding was assessed utilising a time resolved fluorescent resonance energy transfer (TR-FRET) competition assay. […] Europium chelate, conjugated to an anti-6*His antibody, was utilised as the donor fluorophore in the TR-FRET pair.
In order to generate a TR-FRET signal, donor fluorophore is excited by a laser at λ337 nm, which subsequently leads to emission at λ618 nm.
In order to monitor differential binding to either BD1 or BD2, single residue mutations of key tyrosines to alanine were made in the acetyl lysine binding pockets. To validate this approach, a double residue mutant tandem domain protein was produced for each of the BET family members.
Final purification was completed by Superdex 200 prep grade size exclusion column. Purified protein was stored at −80° C. in 20 mM HEPES pH 7.5 and 100 mM NaCl.
All assay components were dissolved in an assay buffer composing of 50 mM HEPES pH7.4, 50 mM NaCl, 5% Glycerol, 1 mM DTT and 1 mM CHAPS. […] An equal volume of 3 nM of anti-6*His Europium chelate was added to all wells, followed by a further 30 minute incubation at room temperature. TR-FRET was detected using a Perkin Elmer Multimode plate reader, by exciting the donor fluorophore at λ337 nm and subsequently, after a delay of 50 μsecs, measuring emission of the donor and acceptor fluorophores at λ615 nm and λ665 nm, respectively.
cA four parameter curve fit of the following form was then applied: y=a+((b−a)/(1+(10^x/10^c)^d) • Where ‘a’ is the minimum, ‘b’ is the Hill slope, ‘c’ is the pIC50 and ‘d’ is the maximum.

Row | IC50 [2] [µM] | Compound | further results
1 | 1 to 100 | CNC(=O)c1cc(C(=O)Nc2cn[nH]c2)cc2c1O[C@@H](CF)[C@@H]2c1ccccc1 [Example 186, (2R,3R)-2-(fluoromethyl)-N^7-methyl-3-phenyl-N^5-(1H-pyrazol-4-yl)-2,3-dihydrobenzofuran-5,7-dicarboxamide] | 
2 | 1 to 100 | CNC(=O)c1cc(C(=O)Nc2cnn(C)c2)cc2c1O[C@@H](CF)[C@@H]2c1ccccc1 [Example 187, (2R,3R)-2-(fluoromethyl)-N^7-methyl-N^5-(1-methyl-1H-pyrazol-4-yl)-3-phenyl-2,3-dihydrobenzofuran-5,7-dicarboxamide] | 
3 | 1 to 100 | CNC(=O)c1cc(C(=O)NCCc2cnn(C)c2)cc2c1O[C@@H](C)[C@@H]2c1ccccc1 [Example 188, (2S,3R)-N^7,2-dimethyl-N^5-(2-(1-methyl-1H-pyrazol-4-yl)ethyl)-3-phenyl-2,3-dihydrobenzofuran-5,7-dicarboxamide] | 
4 | 1 to 100 | CNC(=O)c1cc(C(=O)N[C@H]2[C@@H]3CN(C(C)=O)C[C@@H]32)cc2c1O[C@@H](C)[C@@H]2c1ccccc1 [Example 189, (2S,3R)-N^5-((1R,5S,6s)-3-acetyl-3-azabicyclo[3.1.0]hexan-6-yl)-N^7,2-dimethyl-3-phenyl-2,3-dihydrobenzofuran-5,7-dicarboxamide] | 
5 | 1 to 100 | CNC(=O)c1cc(C(=O)N[C@H]2[C@@H]3CN(C(C)=O)C[C@@H]32)cc2c1O[C@@H](CF)[C@@H]2c1ccccc1 [Example 190, (2R,3R)-N^5-((1R,5S,6s)-3-acetyl-3-azabicyclo[3.1.0]hexan-6-yl)-2-(fluoromethyl)-N^7-methyl-3-phenyl-2,3-dihydrobenzofuran-5,7-dicarboxamide] | 
6 | 1 to 100 | CNC(=O)c1cc(C(=O)Nc2ncn(C)n2)cc2c1O[C@@H](CF)[C@@H]2c1ccccc1 [Example 192, (2R,3R)-2-(fluoromethyl)-N^7-methyl-N^5-(1-methyl-1H-1,2,4-triazol-3-yl)-3-phenyl-2,3-dihydrobenzofuran-5,7-dicarboxamide] | 
7 | 1 to 100 | CNC(=O)c1cc(C(=O)Nc2ccnnc2)cc2c1O[C@@H](CF)[C@@H]2c1ccccc1 [Example 193, (2R,3R)-2-(fluoromethyl)-N^7-methyl-3-phenyl-N^5-(pyridazin-4-yl)-2,3-dihydrobenzofuran-5,7-dicarboxamide] | 
8 | 1 to 100 | CNC(=O)c1cc(C(=O)Nc2cn(C)nn2)cc2c1O[C@@H](CF)[C@@H]2c1ccccc1 [Example 194, (2R,3R)-2-(fluoromethyl)-N^7-methyl-N^5-(1-methyl-1H-1,2,3-triazol-4-yl)-3-phenyl-2,3-dihydrobenzofuran-5,7-dicarboxamide] | 
9 | 1 to 100 | CNC(=O)c1cc(C(=O)Nc2nncn2C)cc2c1O[C@@H](CF)[C@@H]2c1ccccc1 [Example 195, (2R,3R)-2-(fluoromethyl)-N^7-methyl-N^5-(4-methyl-4H-1,2,4-triazol-3-yl)-3-phenyl-2,3-dihydrobenzofuran-5,7-dicarboxamide] | 
10 | 1 to 100 | CNC(=O)c1cc(C(=O)Nc2cncnc2)cc2c1O[C@@H](CF)[C@@H]2c1ccccc1 [Example 200, (2R,3R)-2-(Fluoromethyl)-N^7-methyl-3-phenyl-N^5-(pyrimidin-5-yl)-2,3-dihydrobenzofuran-5,7-dicarboxamide] | 
11 | 1 to 100 | CNC(=O)c1cc(C(=O)N[C@H]2[C@@H]3COC[C@@H]32)cc2c1O[C@@H](C)[C@@H]2c1cccc(OCCOC)c1 [Example 201, (2S,3R)-N^5-((1R,5S,6r)-3-oxabicyclo[3.1.0]hexan-6-yl)-3-(3-(2-methoxyethoxy)phenyl)-N^7,2-dimethyl-2,3-dihydrobenzofuran-5,7-dicarboxamide] | 

The next lines start with the molecule.

Row | Compound | IC50 [2] [µM] | further results
12 | CNC(=O)c1cc(C(=O)N[C@H]2[C@@H]3CN(C(=O)OC(C)(C)C)C[C@@H]32)cc2c1O[C@H](C)[C@H]2c1ccccc1 [Example 38, (1R,5S,6S)-tert-Butyl 6-((2R,3S)-2-methyl-7-(methylcarbamoyl)-3-phenyl-2,3-dihydrobenzofuran-5-carboxamido)-3-azabicyclo[3.1.0]hexane-3-carboxylate] | 0.01 | IC50 [1]: 20 µM; Selectivity for BRD4 BD2 over BRD4 BD1 (BRD4 BD2 pIC50 - BRD4 BD1 pIC50) ([2]; in at least one of the TR-FRET assays): 3.3 log unit; fold selective for BRD4 BD2 over BRD4 BD1 ([2]; inferred from the log unit selectivity): at least 100 fold
13 | CNC(=O)c1cc(C(=O)NCC(C)O)cc2c1O[C@@H](C)[C@@H]2c1ccccc1 (stereo partly drawn) [Example 107, (2S,3R)-N^5-(2-hydroxypropyl)-N^7,2-dimethyl-3-phenyl-2,3-dihydrobenzofuran-5,7-dicarboxamide] | 1 to 100 | 
14 | CNC(=O)c1cc(C(=O)NC2C[C@H]2CCO)cc2c1O[C@H](CF)[C@H]2c1ccccc1 (stereo partly drawn) [Example 132, (2S,3S)-2-(Fluoromethyl)-N^5-((trans)-2-(2-hydroxyethyl)cyclopropyl)-N^7-methyl-3-phenyl-2,3-dihydrobenzofuran-5,7-dicarboxamide] | 1 to 100 | 
15 | CCC(=O)N1C[C@@H]2[C@H](C1)[C@H]2NC(=O)c1cc(C(=O)NC)c2c(c1)[C@@H](c1ccccc1)[C@H](CF)O2 [Example 164, (2R,3R)-2-(Fluoromethyl)-N^7-methyl-3-phenyl-N^5-((1R,5S,6s)-3-propionyl-3-azabicyclo[3.1.0]hexan-6-yl)-2,3-dihydrobenzofuran-5,7-dicarboxamide] | 1 to 100 | 
16 | CNC(=O)c1cc(C(=O)Nc2nncn2C)cc2c1O[C@H](CF)[C@H]2c1ccccc1 [Example 172] | 1 to 100 | 
17 | CNC(=O)c1cc(C(=O)Nc2nnn(C)n2)cc2c1O[C@H](CF)[C@H]2c1ccccc1 [Example 174, (2S,3S)-2-(Fluoromethyl)-N^7-methyl-N^5-(2-methyl-2H-tetrazol-5-yl)-3-phenyl-2,3-dihydrobenzofuran-5,7-dicarboxamide] | 1 to 100 | 
18 | CNC(=O)c1cc(C(=O)N[C@H]2[C@@H]3COC[C@@H]32)cc2c1O[C@@H](C)[C@@H]2c1cccc(OCCO)c1 [Example 181, (2S,3R)-N^5-((1R,5S,6r)-3-oxabicyclo[3.1.0]hexan-6-yl)-3-(3-(2-hydroxyethoxy)phenyl)-N^7,2-dimethyl-2,3-dihydrobenzofuran-5,7-dicarboxamide] | 1 to 100 | 
19 | CNC(=O)c1cc(C(=O)NCCc2cccnc2)cc2c1O[C@@H](C)[C@@H]2c1cccc(OCCO)c1 [Example 183, (2S,3R)-3-(3-(2-hydroxyethoxy)phenyl)-N^7,2-dimethyl-N^5-(2-(pyridin-3-yl)ethyl)-2,3-dihydrobenzofuran-5,7-dicarboxamide] | 1 to 100 | 
20 | CNC(=O)c1cc(C(=O)N[C@@H]2C[C@H]2CO)cc2c1O[C@@H](CF)[C@@H]2c1ccccc1 [Example 184, (2R,3R)-2-(fluoromethyl)-N^5-((1R,2R)-2-(hydroxymethyl)cyclopropyl)-N^7-methyl-3-phenyl-2,3-dihydrobenzofuran-5,7-dicarboxamide] | 1 to 100 | 
